Assay [1] concerns the target T1, rat lens aldose reductase (Rattus norvegicus, UniProt P07943).
T1 construct: made in house; host or cells: Escherichia coli
The assay is described as follows: Enzyme assay: inhibition of aldose reductase, monitored spectrophotometrically as decrease in NADPH absorbance at 340 nm. Type of assay: biochemical. To be noted: 1x10^-4 M concentration; purified recombinant rat aldose reductase, in vitro; read-out: inhibition rate of aldose reductase. How it is done: The activity of purified recombinant rat aldose reductase (Old SE, Sato S, Kador PF. and Carper DA.: In vitro expression of rat lens aldose reductase in Escherichia coli., Proc. Nat. Acad. Sci. USA, 87:4942-4945, 1990) was assayed by spectrophotometrically monitoring decrease in absorbance of NADPH (reduced nicotinamide adenine dinucleotide phosphate) at 340 nm (Kador PF., Goosey JD., Sharpless NE., Kolish J, and Miller DD.: Stereoscopic inhibition of aldose reductase, European J., Med. Chem. 16: 293-298, 1981).
One enzyme unit was defined as amount of enzyme consuming one micromole of NADPH under the assay conditions.
With reference to 1-N,N-dimethylsulfamoyl-4-(2-pyrimidinyl)piperazine (SRA-1; product of Example 3) and 4-((4-dimethylsulfamoyl)piperazino)-2,6-dimethoxypyrimidine (SRA-2; product of Example 1), their in vitro ability to inhibit rat lens aldose reductase were determined.

Assay [2] has as its system Diabetic Rats. Kind of assay: Cataract formation in streptozotocin-induced diabetic rats, lens changes evaluated by slit lamp. Type of assay: in vivo, Sprague Dawley rats. To be noted: 0.06% drug in rat chow; for cataract formation: Figure 1, result of Test Example 2; for cataract formation / onset and severity of sugar cataract formation / progress of lens changes to the vacuole stage: diabetic rats; for Lens changes were observed at: days after injection of streptozotocin, untreated diabetic lens changes began at 21 days; for onset and severity of sugar cataract formation: compared with control chow; for progress of lens changes to the vacuole stage: in untreated diabetic rats vacuoles clearly visible by 35 days. As for the experimental part: Diabetes was induced in 40 young (60-80 g) Sprague Dawley rats by tail vein injection of 75 mg/kg streptozotocin in Tris-HCl and divided into 3 groups. After 4 days all rats were tested with glucostrips (tail blood), and those with blood sugar levels less than 250 mg % were reinjected with 70 mg/kg streptozotocin dissolved in Tris-HCl.
Drug administration was carried out by adding 0.06% drug to rat chow. The rat chow with added drug was formed by mixing appropriate amounts of each drug with powdered rat chow and then cold pressing the mixture into different size pellets for identification. The rat chow was commercially prepared by BioServe (Frenchtown, N.J.). Subsequently, each compound was dissolved in 500 ml of Tris buffer and mixed with 5 kg of standard rat chow pellets until all liquid was absorbed into the pellets and the wet pellets were dried for 24 hours at 60°C. Rat chow not containing drug was fed to a control group of rats.
Lens changes were evaluated by portable slit lamp at approximately 3-6 day intervals in the diabetic rats. Lens changes were evaluated on a scale at 0 to 3 as follows: 0 clear lens; 1 vacuoles present; 2 cortical opacities; 3 hypermature cataract. The severity of lens changes within the vacuole and cortical stage was further subjectively defined as follows: 1.2 peripheral equatorial vacuoles; 1.4 obvious formation 50% of the lens; 1.6 obvious vacuole formation 50% of lens; 1.8 total lens covered by vacuoles; 2.2 start of cortical changes with posterior capsule still visible by slit lamp; 2.4 advanced cortical opacities covering most of lens; cortical opacity expanded to whole lens; 2.8 total lens is white in appearance.

The structures appear in SMILES notation.

Turning to `COc1cc(N2CCN(S(=O)(=O)N(C)C)CC2)nc(OC)n1` [SRA-2, 4-((4-dimethylsulfamoyl)piperazino)-2,6-dimethoxypyrimidine], the inhibition at 100 µM in assay [1] came to 13%. Besides, in assay [2], the cataract formation result is recorded as “inhibited”; the “Lens changes were observed at” value is listed as 45 days; the “onset and severity of sugar cataract formation” value is given as “delayed”; the “progress of lens changes to the vacuole stage” value was “did not progress to the vacuole stage”.

For `CN(C)S(=O)(=O)N1CCN(c2ncccn2)CC1` [SRA-1, 1-N,N-dimethylsulfamoyl-4-(2-pyrimidinyl)piperazine], the inhibition at 100 µM in assay [1] is 5%. For the same compound, in assay [2], the cataract formation result is on record as “inhibited”; the “Lens changes were observed at” value stood at 39 days; the “onset and severity of sugar cataract formation” value is given as “delayed”; the “progress of lens changes to the vacuole stage” value is recorded as “did not progress to the vacuole stage”.

What is called inhibition is the share of the control response that was lost under treatment.

For the origin of these results see patent publication EP0806422A2, “Anti-cataract agent” (Senju Pharmaceutical Co., Ltd., priority 1996, dated 1997).
